Source: patent publication USRE43135E1, “Method of improving dough and bread quality” (Danisco A/S, priority 2001, dated 2012)

Columns and labels:
[1] = enzyme expressed in a baculovirus system, Matos et al; cited from earlier work
[2] = Model dough, free fatty acid in dough (cowpea LAH); type: biochemical, wheat
Protocol: (§1) 10 g of flour and 0.020 g sodium chloride were mixed in a 10 g Farinograph mixing bowl for 1 minute either with or without enzymes. Subsequently water (500 Brabender units) was added and mixed for 5 minutes at 30° C. After mixing the dough was placed at 32° C. for 1 hour, and then frozen and freeze dried prior to further analysis.
(§2) 10 g of fully proofed dough was immediately frozen and freeze dried. The freeze-dried dough was milled in a coffee mill and passed through an 800 micron screen. 1.5 g freeze-dried dough was scaled in a 15 ml centrifuge tube with screw top lid. 7.5 ml water saturated butanol (WSB) was added. The centrifuge tube was placed in a boiling water bath for 10 minutes. The tubes were placed in a Rotamix and rotated at 45 rpm for 20 minutes at ambient temperature and then placed in a boiling water bath again for a further 10 minutes prior to being Rotated on the Rotamix for a further 30 minutes at ambient temperature. The tubes were centrifuged at 3500 g for 5 minutes. 5 ml supernatant was transferred into a vial and the WSB was evaporated to dryness under a steam of nitrogen.
The free fatty acids in the extract were analysed as Cu-salts in isooctane measured at 715 nm and quantified according to a calibration curve based on oleic acid (Kwon D. Y. and Rhee J. S. (1986), A simple and rapid Colourimetric Method for
In the first series of dough experiments purified cowpea LAH was tested in 10 g dough in different concentrations in order to test the activity of the enzyme in dough and in order to find a suitable dosage for baking experiments. The activity of the enzyme was measured by analysing the level of free fatty acid in dough.

[3] = Model dough, HPLC analysis of polar lipids in dough (cowpea LAH); type: biochemical, wheat
Protocol: as §1, §2
(§3) Determination of Free Fatty Acids for Lipase Assay, JAOCS 63:89). Determination of Glycolipids and Phospholipids by HPLC.
(§4) The calibration curve for PC was used to calculate the amounts of the glycolipids and phospholipids.
Lipids extracted from the dough were further analysed by HPLC in order to study the effect on polar lipids in the dough.

[4] = Model dough, GLC analysis of non-polar lipids (cowpea LAH); type: biochemical, wheat; details: Example 1, FIG. 7, compared with activity on polar lipids and free fatty acid formation
Protocol: as §1
(§5) Perkin Elmer 8420 Capillary Gas Chromatography equipped with WCOT fused silica column 12.5 m×0.25 mm ID×0.1 μm 5% phenyl-methyl-silicone (CP Sil 8 CB from Crompack). • Carrier: Helium. • Injection: 1.5 μl with split. • Detector: FID. 385° C.
(§6) Sample preparation: 50 mg wheat lipid was dissolved in 12 ml heptane: pyridine 2:1 containing an internal standard heptadecane, 2 mg/ml. 500 μl of the sample was transferred to a crimp vial. 100 μl MSTFA (N-Methyl-N-trimethylsilyltrifluoracetamid) was added and the reaction incubated for 15 minutes at 90° C. Calculation: Response factors for mono-di-triglycerides and free fatty acid were determined from reference mixtures of these components. Based on these response factors the mono-di-triglycerides and free fatty acids in wheat lipids were calculated.
The non-polar lipids were analysed by GLC.

[5] = Minibread dough, free fatty acid analysis; type: biochemical, wheat
Protocol: as §2
The free fatty acids in the extract were analysed as Cu-salts in isooctane measured at 715 nm and quantified according to a calibration curve based on oleic acid (Kwon D. Y. and Rhee J. S. (1986), A simple and rapid Colourimetric Method for […]

[6] = Minibread dough, GLC analysis of non-polar dough lipids; type: biochemical, wheat
Protocol: as §2, §5, §6

[7] = Minibread dough, HPLC analysis of galactolipids; type: biochemical, wheat
Protocol: as §2, §3, §4

[8] = Enzyme-catalysed degumming of vegetable oil; type: biochemical; details: rapeseed oil degumming; preliminary results
Protocol: Vegetable oil, in particular rapeseed oil, was treated with LAH isolated from cowpea to effect degumming of the oil. The process used was essentially as per the enzyme-catalysed degumming process of vegetable oil generally taught in Buchold, H. (Fat Sci. Technol. 95 Jahrgang nr. 8, 1993, pp300-305), excepting that LAH was used.

[9] = Assay for enzyme activity with pNP-Caprate; type: biochemical; details: desalted/concentrated sample of purification step 5 (used for baking trials)
Protocol: Preparation of substrate for enzymatic assay: The substrate, pNP-Caprate (C10), was dissolved in ethanol and diluted in 100 mM Na-Phosphate-buffer (pH 6.3) to a final concentration of 0.1 mg,/ml substrate and 30% ethanol respectively, and kept at room temperature.
Assay method: The enzyme assay mixture contained 30 μl sample/blank and 250 μl substrate. The mixture was incubated at 35° C. for 30 minutes (420 nm) whilst simultaneously running an ELISA-reader (420 nm) kinetic program. The Vmax value was used for calculation of enzyme activity (U/ml). Vmax was converted to μmol from a standard curve for solutions of pNP measured under the same conditions as the sample. The enzyme activity is defined as the amount of enzyme which produce 1 μmol of pNP per min. at 35° C.

[10] = Withers-Martinez et al; cited from earlier work
[11] = Cowpea LAH 0.0048 Units/kg flour
[12] = Cowpea LAH 0.024 Units/kg flour
[13] = Cowpea LAH % 0.1195, minibread dough
[14] = Cowpea LAH % 0.239, minibread dough
[15] = Cowpea LAH % 0.478, minibread dough
[16] = Cowpea LAH % 0.956, minibread dough
[17] = Test no. 2, Cowpea LAH 0.05 % in dough, fully proofed minibread dough
[18] = Test no. 3, Cowpea LAH 0.15 % in dough, fully proofed minibread dough
[19] = Test no. 3, Cowpea LAH 0.357 Units/kg flour, no DGDG added, minibread dough
[20] = Test no. 4, Cowpea LAH 0.357 Units/kg flour + DGDG 55% pure 0.2 %, minibread dough

For “43 KDa protein from drought-stressed cowpea: galactolipid acyl hydrolase of Matos et al, expressed in a baculovirus system; amino acid sequence SEQ ID No. 1”, the “activity on triacylglycerol (triglyceride)” value [1] is given as “no activity”, the “galactolipid acyl hydrolase activity” value [1] is given as “preferentially galactolipid acyl hydrolase activity” and the phospholipid activity [1] is given as “some phospholipid activity”.

For “Cowpea LAH: lipolytic acyl hydrolase (E.C. 3.1.1.26) isolated from cowpea (Vigna unguiculata) leaves; hydrolyses glycolipid and phospholipid, not triglyceride”, the “Fatty acid in dough” value [2, 11] was 1.66 ‰, the “Fatty acid in dough” value [2, 12] was 1.78 ‰ and the “Fatty acid in dough” value ([2]; Cowpea LAH 0.12 Units/kg flour) was 2.13 ‰. The “Fatty acid in dough” value ([2]; Cowpea LAH 0.6 Units/kg flour) was 2.55 ‰, the “Fatty acid in dough” value ([2]; Cowpea LAH 3 Units/kg flour) was 3.44 ‰ and the DGDG [3, 11] was 2.22 ‰. For the same molecule, the DGMG [3, 11] was 0.20 ‰, the LPC [3, 11] was 1.50 ‰ and the PC [3, 11] was 0.52 ‰. For the same molecule, the DGDG [3, 12] was 2.12 ‰, the DGMG [3, 12] was 0.23 ‰ and the LPC [3, 12] was 1.51 ‰. For the same molecule, the PC [3, 12] was 0.48 ‰, the DGDG ([3]; Cowpea LAH 0.12 Units/kg flour) was 1.84 ‰ and the DGMG ([3]; Cowpea LAH 0.12 Units/kg flour) was 0.26 ‰. The LPC ([3]; Cowpea LAH 0.12 Units/kg flour) was 1.37 ‰, the PC ([3]; Cowpea LAH 0.12 Units/kg flour) was 0.35 ‰ and the DGDG ([3]; Cowpea LAH 0.6 Units/kg flour) was 1.08 ‰. For the same molecule, the DGMG ([3]; Cowpea LAH 0.6 Units/kg flour) was 0.30 ‰, the LPC ([3]; Cowpea LAH 0.6 Units/kg flour) was 1.30 ‰ and the PC ([3]; Cowpea LAH 0.6 Units/kg flour) was 0.29 ‰. The DGDG ([3]; Cowpea LAH 3.0 Units/kg flour) was 0.30 ‰, the DGMG ([3]; Cowpea LAH 3.0 Units/kg flour) was 0.11 ‰ and the LPC ([3]; Cowpea LAH 3.0 Units/kg flour) was 1.19 ‰. The PC ([3]; Cowpea LAH 3.0 Units/kg flour) was 0.00 ‰, the “activity on triglyceride (GLC analysis)” value [4] was “no activity” and the “Free fatty acid in dough” value ([5]; Cowpea LAH 0.1195 Units/kg) was 2.72 ‰. For the same molecule, the “Free fatty acid in dough” value ([5]; Cowpea LAH 0.239 Units/kg) was 2.81 ‰, the “Free fatty acid in dough” value ([5]; Cowpea LAH 0.478 Units/kg) was 3.07 ‰ and the “Free fatty acid in dough” value ([5]; Cowpea LAH 0.956 Units/kg) was 3.28 ‰. For the same molecule, the Free fatty acid ([5]; Test no 3, Cowpea LAH 0.357 Units/kg flour, no DGDG) was 3.07 ‰, the Free fatty acid ([5]; Test no 4, Cowpea LAH 0.357 Units/kg flour + DGDG 55% pure 0.2 %) was 3.00 ‰ and the Free fatty acid ([5]; Test no 10, Cowpea LAH 1.07 Units/kg flour, no DGDG) was 3.32 ‰. For the same molecule, the Free fatty acid ([5]; Test no 11, Cowpea LAH 1.07 Units/kg flour + DGDG 55% pure 0.1 %) was 3.42 ‰, the Free fatty acid ([5]; Test no 12, Cowpea LAH 1.07 Units/kg flour + DGDG 55% pure 0.2 %) was 3.64 ‰ and the Free fatty acid ([5]; Test no 13, Cowpea LAH 1.07 Units/kg flour + DGDG 55% pure 0.4 %) was 3.92 ‰. For the same molecule, the Free fatty acid ([5]; Test no 15, Cowpea LAH 1.07 Units/kg flour + Soy oil 2 %) was 3.35 ‰, the Free fatty acid ([5]; Test no 16, Cowpea LAH 2.14 Units/kg flour + Soy oil 2 %) was 3.75 ‰ and the “Fatty acid in dough” value ([5]; Test no. 2, Cowpea LAH 0.05 % in dough) was 2.75 ‰. For the same molecule, the “Fatty acid in dough” value ([5]; Test no. 3, Cowpea LAH 0.15 % in dough) was 2.96 ‰, the Diglyceride [6, 13] was 0.96 ‰ and the Monoglyceride [6, 13] was 0.40 ‰. For the same molecule, the Triglyceride [6, 13] was 5.04 ‰, the Diglyceride [6, 14] was 1.23 ‰ and the Monoglyceride [6, 14] was 0.41 ‰. For the same molecule, the Triglyceride [6, 14] was 5.21 ‰, the Diglyceride [6, 15] was 0.90 ‰ and the Monoglyceride [6, 15] was 0.43 ‰. For the same molecule, the Triglyceride [6, 15] was 5.09 ‰, the Diglyceride [6, 16] was 1.01 ‰ and the Monoglyceride [6, 16] was 0.41 ‰. For the same molecule, the Triglyceride [6, 16] was 5.23 ‰, the Diglyceride [6, 17] was 0.95 ‰ and the Monoglyceride [6, 17] was 0.43 ‰. The Triglyceride [6, 17] was 4.98 ‰, the Diglyceride [6, 18] was 0.96 ‰ and the Monoglyceride [6, 18] was 0.43 ‰. For the same molecule, the Triglyceride [6, 18] was 5.11 ‰, the Triglyceride [6, 19] was “not detected” and the Triglyceride [6, 20] was 5.82 ‰. The DGDG [7, 13] was 2.08 ‰, the DGMG [7, 13] was 0.23 ‰ and the DGDG [7, 14] was 2.01 ‰. For the same molecule, the DGMG [7, 14] was 0.20 ‰, the DGDG [7, 15] was 1.89 ‰ and the DGMG [7, 15] was 0.24 ‰. The DGDG [7, 16] was 1.60 ‰, the DGMG [7, 16] was 0.20 ‰ and the DGDG [7, 17] was 2.03 ‰. The DGMG [7, 17] was 0.27 ‰, the DGDG [7, 18] was 1.92 ‰ and the DGMG [7, 18] was 0.28 ‰. The DGDG [7, 19] was 1.93 ‰, the DGMG [7, 19] was 0.23 ‰ and the DGDG [7, 20] was 2.4 ‰. For the same molecule, the DGMG [7, 20] was 0.25 ‰, the “amounts of polar lipids in the oil” value [8] was “reduce the amounts of polar lipids” and the “triglyceride levels of the oil” value [8] was “not significantly affecting”. It also gave a Vmax [9] of 5.6 mOD/min and an enzyme activity [9] of 0.010 U/ml.

B1: GPLRP2: guinea pig pancreatic lipase-related protein 2 (protein, UniProt P81139 1-434, looked up)
Pancreatic lipase-related …: AEVCYSHLGCFSDEKPWAGTSQRPIKSLPSDPKKINTRFLLYTNENQNSYQLITATDIATIKASNFNLNRKTRFIIHGFTDSGENSWLSDMCKNMFQVEKVNCICVDWKGGSKAQYSQASQNIRVVGAEVAYLVQVLSTSLNYAPENVHIIGHSLGAHTAGEAGKRLNGLVGRITGLDPAEPYFQDTPEEVRLDPSDAKFVDVIHTDISPILPSLGFGMSQKVGHMDFFPNGGKDMPGCKTGISCNHHRSIEYYHSSILNPEGFLGYPCASYDEFQESGCFPCPAKGCPKMGHFADQYPGKTNAVEQTFFLNTGASDNFTRWRYKVTVTLSGEKDPSGNINVALLGKNGNSAQYQVFKGTLKPDASYTNSIDVELNVGTIQKVTFLWKRSGISVSKPKMGASRITVQSGKDGTKYNFCSSDIVQENVEQTLSPC
In the case of B1, the “activity on galactolipids and phospholipids” value [10] is given as “has activity on galactolipids and phospholipids” and the activity on triglyceride [10] is given as “reduced activity”.

B2: HPL: human pancreas lipase (protein, UniProt P16233 17-465, looked up)
Pancreatic triacylglycerol …: KEVCYERLGCFSDDSPWSGITERPLHILPWSPKDVNTRFLLYTNENPNNFQEVAADSSSISGSNFKTNRKTRFIIHGFIDKGEENWLANVCKNLFKVESVNCICVDWKGGSRTGYTQASQNIRIVGAEVAYFVEFLQSAFGYSPSNVHVIGHSLGAHAAGEAGRRTNGTIGRITGLDPAEPCFQGTPELVRLDPSDAKFVDVIHTDGAPIVPNLGFGMSQVVGHLDFFPNGGVEMPGCKKNILSQIVDIDGIWEGTRDFAACNHLRSYKYYTDSIVNPDGFAGFPCASYNVFTANKCFPCPSGGCPQMGHYADRYPGKTNDVGQKFYLDTGDASNFARWRYKVSVTLSGKKVTGHILVSLFGNKGNSKQYEIFKGTLKPDSTHSNEFDSDVDVGDLQMVKFIWYNNVINPTLPRVGASKIIVETNVGKQFNFCSPETVREEVLLTLTPC
In the case of B2, the activity on triglyceride [10] is listed as “only activity on triglyceride”.
